Laboratory results from patent US10125356B2, “Enzymatic methods and enzymes” (Givaudan SA, priority 2007, dated 2018).

Experiments:
[1] = system: K411 peptidase (SEQ ID NO: 4); assay: Release of 3-sulfanyl-3-methyl-hexanol from cys-gly-conjugate by clear lysate of recombinant E. coli expressing K411 peptidase, monobromobimane fluorescence test; format: biochemical, Corynebacterium jeikeium K411; settings: conjugate 1 mM
Method: (§1) Samples of each fraction were incubated both with the β-lyase and with the cys-gly-conjugate at the same time, and the release of 3-sulfanyl-3-methyl-hexanol was determined by a fluorescence test specific for free SH groups: To this end the enzyme reaction was stopped by adding 0.5 volumes of NaCO3-buffer (0.1 M, pH 8.8) containing 0.5 mM monobromobimane, thus derivatising the free thiol-group. Fluorescence was then measured on a Flex-station (Molecular devices, Sunnyvale, Calif., USA) with an excitation wavelength of 385 nm and an emission wavelength of 480 nm.
(§2) 50 ml of recombinant E. coli culture formed as described in example 3 and 4 was harvested, resuspended in a final volume of 3 ml of phosphate buffer and then disrupted with ultrasonication. The soluble extract was cleared by centrifugation. Different dilutions of the resulting extract were incubated with the cys-gly-conjugate (1 mM) and in presence as well as in absence of an excess of the β-lyase. As a negative control, clear cell lysate from E. coli transformed with an empty vector, and cell lysates with the cys-gly-conjugate but no β-lyase were used.

[2] = system: Ax20 peptidase (SEQ ID NO: 2); assay: Release of 3-sulfanyl-3-methyl-hexanol from cys-gly-conjugate by clear lysate of recombinant E. coli expressing Ax20 peptidase, monobromobimane fluorescence test; format: biochemical, Corynebacterium sp. Ax20; settings: conjugate 1 mM
Method: as §1, §2

β-lyase = molecular target: T1, β-lyase (Corynebacterium striatum, UniProt Q64HC5); assay: Cleavage of conjugates by β-lyase, release of 3-sulfanyl-3-methyl-hexanol by gas chromatography; format: biochemical, Corynebacterium sp. Ax20; settings: conjugate 1 mM incubated with β-lyase
T1 construct: made in house
T1 sequence (Q64HC5 whole entry): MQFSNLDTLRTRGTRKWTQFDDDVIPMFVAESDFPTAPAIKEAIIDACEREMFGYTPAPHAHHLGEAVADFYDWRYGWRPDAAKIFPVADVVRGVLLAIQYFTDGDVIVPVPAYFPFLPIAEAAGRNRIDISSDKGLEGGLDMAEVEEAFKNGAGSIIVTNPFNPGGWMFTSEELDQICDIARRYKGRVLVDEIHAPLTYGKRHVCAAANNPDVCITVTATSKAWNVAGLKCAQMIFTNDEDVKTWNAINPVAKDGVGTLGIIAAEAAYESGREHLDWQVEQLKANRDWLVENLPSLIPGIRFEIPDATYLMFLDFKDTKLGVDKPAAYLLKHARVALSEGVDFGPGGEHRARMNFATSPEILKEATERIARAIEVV
Method: The test compounds (Cys-conjugate (1 mM) or Cys-Gly-conjugate (1 mM)) were incubated with β-lyase.
(§3) Cleavage was measured by gas chromatography to determine the release of 3-sulfanyl-3-methyl-hexanol in mM.

Ax20 peptidase = assay: Substrate specificity of recombinant Ax20 peptidase, cleavage by thin layer chromatography; format: biochemical, Corynebacterium sp. Ax20; settings: 1 mM solution, 0.1 or 1 μg/ml peptidase, incubation 1 h
Method: The recombinant Ax20 peptidase formed as described in example 3 (affinity column purified tagged enzyme) was incubated with different compounds, in particular potential candidate dipeptide substrates, to characterize the substrate specificity and to identify substrates useful for screening assays (for example to screen for modulators including inhibitors).
The table below lists the tested compounds (mostly dipeptides indicated by their short names, e.g. ala-gly for an alanine-glycine dipeptide) and indicates whether they are cleaved by the peptidase. Z indicates a benzyloxy-carbonyl protecting group at the N-terminus of the peptide.
Cleavage was determined by thin layer chromatography.
Amounts are qualitative with (+++) indicating >80% cleavage of a 1 mM solution by 0.1 μg/ml peptidase during an incubation for 1 h; (++) indicates complete cleavage of a 1 mM solution by 1 μg/ml peptidase during an incubation for 1 h and (+) indicates partial cleavage (20-80%) of a 1 mM solution by 1 μg/ml peptidase during an incubation for 1 h and (−) indicating the absence of any cleavage.

C. sp. Ax 20 extract = assay: Cleavage of conjugates by Corynebacterium sp. Ax20 cellular extract, release of 3-sulfanyl-3-methyl-hexanol by gas chromatography; format: biochemical; settings: conjugate 1 mM incubated with C. sp. Ax 20 extract for 24 h
Method: The test compounds (cys-conjugate (1 mM) or cys-gly-conjugate (1 mM)) were incubated also with the wild-type strain Corynebacterium sp. Ax20 extract naturally containing the peptidase of SEQ ID NO:2. Corynebacterium sp. Ax20 cellular extract was prepared as described in example 1. The resulting extract was diluted to the same volume as the original culture has had when adjusted to an optical density of OD 4. The substrate was incubated with the extract for 24 h.
as §3

## CCCC(C)(CCO)SC[C@H](N)C(=O)NCC(=O)O (stereo in doubt) [Cys-gly-conjugate, (1-(2-hydroxyethyl)-1-methylbutyl)-L-cysteinyl-glycine]
[1]; K411 peptidase + β-lyase, clear cell lysate diluted 10 fold
  release of 3-sulfanyl-3-methyl-hexanol from the Cys-Gly-conjugate: 0.55 mM
[1]; K411 peptidase + β-lyase, clear cell lysate diluted 100 fold
  release of 3-sulfanyl-3-methyl-hexanol from the Cys-Gly-conjugate: 0.19 mM
[1]; K411 peptidase + β-lyase, clear cell lysate diluted 1000 fold
  release of 3-sulfanyl-3-methyl-hexanol from the Cys-Gly-conjugate: 0.03 mM
[1]; K411 peptidase w/o β-lyase, clear cell lysate diluted 10 fold
  release of 3-sulfanyl-3-methyl-hexanol from the Cys-Gly-conjugate: 0.10 mM
[1]; K411 peptidase w/o β-lyase, clear cell lysate diluted 100 fold
  release of 3-sulfanyl-3-methyl-hexanol from the Cys-Gly-conjugate: <0.01 mM
[1]; K411 peptidase w/o β-lyase, clear cell lysate diluted 1000 fold
  release of 3-sulfanyl-3-methyl-hexanol from the Cys-Gly-conjugate: <0.01 mM
[2]; Ax20 peptidase + β-lyase, clear cell lysate diluted 10 fold
  release of 3-sulfanyl-3-methyl-hexanol from the Cys-Gly-conjugate: 1.00 mM
[2]; Ax20 peptidase + β-lyase, clear cell lysate diluted 100 fold
  release of 3-sulfanyl-3-methyl-hexanol from the Cys-Gly-conjugate: 0.92 mM
[2]; Ax20 peptidase + β-lyase, clear cell lysate diluted 1000 fold
  release of 3-sulfanyl-3-methyl-hexanol from the Cys-Gly-conjugate: 0.46 mM
[2]; Ax20 peptidase w/o β-lyase, clear cell lysate diluted 10 fold
  release of 3-sulfanyl-3-methyl-hexanol from the Cys-Gly-conjugate: 0.10 mM
[2]; Ax20 peptidase w/o β-lyase, clear cell lysate diluted 100 fold
  release of 3-sulfanyl-3-methyl-hexanol from the Cys-Gly-conjugate: <0.01 mM
[2]; Ax20 peptidase w/o β-lyase, clear cell lysate diluted 1000 fold
  release of 3-sulfanyl-3-methyl-hexanol from the Cys-Gly-conjugate: <0.01 mM
[2]; Ax20 peptidase with histidine tag + β-lyase, clear cell lysate diluted 10 fold
  release of 3-sulfanyl-3-methyl-hexanol from the Cys-Gly-conjugate: 0.94 mM
[2]; Ax20 peptidase with histidine tag + β-lyase, clear cell lysate diluted 100 fold
  release of 3-sulfanyl-3-methyl-hexanol from the Cys-Gly-conjugate: 0.88 mM
[2]; Ax20 peptidase with histidine tag + β-lyase, clear cell lysate diluted 1000 fold
  release of 3-sulfanyl-3-methyl-hexanol from the Cys-Gly-conjugate: 0.36 mM
β-lyase
  release of 3-sulfanyl-3-methyl-hexanol from the conjugate: <0.03 mM
Ax20 peptidase
  Cleavage: +++ ((+++) indicating >80% cleavage of a 1 mM solution by 0.1 μg/ml peptidase during an incubation for 1 h)
C. sp. Ax 20 extract
  release of 3-sulfanyl-3-methyl-hexanol from the conjugate: 0.21 mM
